In patent US20220370636A1, “NICOTINAMIDE ADENINE DINUCLEOTIDE ACTIVATOR AND USE THEREOF” (University of South Florida, priority 2021, published 2022):
Each block holds one compound with its values, some of them ahead of it.

Tests used:
[1] = system: C57Bl/6J mice on a high-fat diet; details: cited from earlier work
recombinant Nampt = recombinant Nampt (Homo sapiens, UniProt P43490); test: Recombinant Nampt enzymatic activity assay; details: enzyme assay with recombinant Nampt
PI3K = test: Ex vivo ischemia reperfusion with PI3K inhibitor LY294002, pAKT Western blot; design: species or system mice; details: WT hearts; LY294002 15 μM prior to global ischemia

Chain of recombinant Nampt (P43490 whole entry, the tested form may be a part): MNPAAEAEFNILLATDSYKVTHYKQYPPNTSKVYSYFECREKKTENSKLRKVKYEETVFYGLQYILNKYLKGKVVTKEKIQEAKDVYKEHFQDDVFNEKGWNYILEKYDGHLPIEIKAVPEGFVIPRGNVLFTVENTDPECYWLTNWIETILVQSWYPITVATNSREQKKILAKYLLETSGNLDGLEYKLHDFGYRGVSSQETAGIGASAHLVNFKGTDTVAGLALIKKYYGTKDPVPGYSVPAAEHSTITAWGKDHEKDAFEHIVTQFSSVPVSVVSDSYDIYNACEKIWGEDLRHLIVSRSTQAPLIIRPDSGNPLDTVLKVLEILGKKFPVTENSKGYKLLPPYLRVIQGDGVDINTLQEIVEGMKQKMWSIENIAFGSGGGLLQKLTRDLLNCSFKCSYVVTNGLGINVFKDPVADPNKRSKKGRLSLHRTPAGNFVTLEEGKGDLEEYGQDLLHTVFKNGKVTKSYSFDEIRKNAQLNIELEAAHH

SMILES: COc1cccc(NCC(F)Cn2c3ccc(Br)cc3c3cc(Br)ccc32)c1 (stereo not drawn) [P7C3 A20]
- fatty liver syndrome [1]: rescued

- Nampt activity (recombinant Nampt): significantly decreased
SMILES: O=C(/C=C/c1cccnc1)NCCCCC1CCN(C(=O)c2ccccc2)CC1 [FK866]

SMILES: Cl.O=c1cc(N2CCOCC2)oc2c(-c3ccccc3)cccc12 [LY294002, 2-(4-Morpholinyl)-8-phenyl-1(4H)-benzopyran−4-one hydrochloride]
- P7C3 based pAkt expression (PI3K): attenuated
